Series [1] deals with human colon cancer cells HT-29. Kind of series: MTT growth inhibition, HT-29. Format: cell-based. The note with it: 24 hours. As to the method: (§1) Cell viability was determined by an MTT colorimetric assay. Briefly, human colon cancer cells HCT-116 or HT-29, were plated in 96-well microtiter plates with 3000 cells/well and allowed to attach for 24 hours at 37° C. and 5% CO2. The test compounds (in DMSO) were added to cell culture medium to desired final concentrations (final DMSO concentrations for control and treatments were 0.1%). After the cells were cultured for 24 hours, the medium was aspirated and cells were treated with 200 μL fresh medium containing 2.41 mmol/L MTT. After incubation for 3 hours at 37° C., the medium containing MTT was aspirated, 100 μL of DMSO was added to solubilize the formazan precipitate, and the plates were shaken gently for an hour at room temperature. Absorbance values were derived from the plate reading at 550 nm on a Biotek (Winooski, Vt., United States of America) microtiter plate reader. The reading reflected the number of viable cells and was expressed as a percentage of viable cells in the control. CCD-18Co cells were grown in EMEM. Both HCT-116 and HT-29 cells were cultured in McCoy's 5A medium. All of the above media were supplemented with 10% fetal bovine serum, 1% penicillin/streptomycin, and 1% glutamine, and the cells were kept in a 37° C. incubator with 95% humidity and 5% CO2.

The subject of series [2] is human colon cancer cells HCT-116. The series is described as follows: MTT growth inhibition, HCT-116. The note with it: 24 hours. Format: cell-based. The protocol:
as §1

The nature of series [3]: Biotransformation in zebrafish embryos (cysteine conjugates, LC/MS). Format: in vivo. The conditions noted are these: 5 μM in incubation medium, 8 hpf to 24 hpf. As to the method:
Fifty zebrafish embryos at the 8 hour-post-fertilization (hpf) stage were incubated at 28.5° C. in 0.3× Danieau's solution (19.3 mM NaCl, 0.23 mM KCl, 0.13 mM MgSO4, 0.2 mM Ca(NO3)2, 1.7 mM HEPES, pH 7.0) with or without 5 μM 18 and 25-27, respectively. At 24 hpf, embryos were dechorionated manually and the chorions were carefully removed one by one from the culture medium. The zebrafish embryos were harvested and kept at −80° C. till analyzed by LC/MS.
200 μL Sodium acetate buffer solution (pH 5.0) was added to 50 zebrafish embryos. Samples were homogenized for 90 s by an Omni Bead Ruptor Homogenizer (Kennesaw, Ga., United States of America). 10 μL 10% ascorbic acid and 300 μL sodium acetate buffer were added to the homogenates. The mixture was incubated in the presence of β-glucuronidase (250 U) and sulfatase (3 U) at 37° C. for 45 min, and then 600 μL MeOH with 1% acetic acid was added. The resulting mixture was vortexed for 30 s and then centrifuged at 17000 g for 10 min. The supernatant was removed and evaporated under a gentle stream of nitrogen. The residue was reconstituted in 150 μL 90% MeOH with 0.2% acetic acid (AA), and 10 μL was analyzed directly by LC/MS.
LC/MS analysis was carried out with a Thermo-Finnigan Spectra System, which consisted of an Accela high speed MS pump, an Accela refrigerated autosampler, and an LCQ Fleet ion trap mass detector (Thermo Electron, San Jose, Calif., United States of America) incorporated with an electrospray ionization (ESI) interface. A Gemini-NX C18 column (150 mm×4.6 mm i.d., 5 μm; Phenomenex, Torrance, Calif., United States of America) was used for separation at a flow rate of 0.3 mL/min. The column was eluted with 100% A (5% aqueous methanol with 0.2% formic acid) for 1 min, followed by linear increases in B (95% aqueous methanol with 0.2% formic acid) to 55% from 1 to 4 min, to 85% from 4 to 25 min, then to 100% B from 25 to 30 min, and then with 100% B from 30 to 35 min. The column was then re-equilibrated with 100% A for 5 min. The LC eluent was introduced into the ESI interface. The positive ion polarity mode was set for the ESI source with the voltage on the ESI interface maintained at approximately 4.6 kV. Nitrogen gas was used as the sheath gas and auxiliary gas. Optimized source parameters, including capillary temperature (260° C.), sheath gas flow rate (31 arbitrary units), auxiliary gas flow rate (16 units), tube lens (34 V), and capillary voltage 9 V, were tuned using authentic samples. The collision-induced dissociation (CID) was conducted with an isolation width 2 Da and normalized collision energy of 35 for MS^2. The mass range was measured from 100 to 800 m/z. Data acquisition was performed with Xcalibur version 2.0 (Thermo Electron, San Jose, Calif., United States of America).

The subject of series [4] is Nrf2. The series is described as follows: Nrf2 reporter activity by Tg(gstp1:GFP) fluorescence in transgenic zebrafish embryos. Format: in vivo. The note with it: 5 μM, 24-hour treatment from 1 dpf to 2 dpf; olfactory epithelia; relative to vehicle (DMSO = 1.00). The protocol: Zebrafish AB transgenic strains Tg(gstp1:GFP) were maintained in a Pentair Aquatic Ecosystem (Apopka, Fla., United States of America) fish housing unit with 14 h light/10 h dark cycle (see Tsujita, T., Li, L., Nakajima, H., Iwamoto, N., Nakajima-Takagi, Y., Ohashi, K., Kawakami, K., Kumagai, Y., Freeman, B. A., Yamamoto, M., and Kobayashi, M. (2011) “Nitro-fatty acids and cyclopentenone prostaglandins share strategies to activate the Keap1-Nrf2 system: a study using green fluorescent protein transgenic zebrafish.” Genes Cells 16, 46-57). The fish embryos were maintained at 28.5° C. in 0.3× Danieau's solution (19.3 mM NaCl, 0.23 mM KCl, 0.13 mM MgSO4, 0.2 mM Ca(NO3)2, 1.7 mM HEPES, pH 7.0) containing 30 μg/ml phenylthiourea (PTU) to inhibit pigmentation. Tg(gstp1:GFP) cross with AB wild-type strain fluorescence embryos were used for the experiment. Zebrafish embryos were washed, dechorionated and anaesthetized before observations, and fluorescence imaging for analysis.
Transgenic zebrafish embryos at 1 day-post-fertilization (dpf) were dechorionated and placed in Petri dishes containing different chemicals diluted in 0.3× Danieau's solution containing PTU. The chemical stock was dissolved in DMSO at 5 mM concentration.
An Olympus MVX10 Fluorescence Macroscope (Olympus, Center Valley, Pa., United States of America) equipped with a Hamamatsu C9300-221 high-speed digital CCD camera (Hamamatsu City, Japan) was used for fluorescence microscopy. Tg(gstp1:GFP) fluorescent embryos were anaesthetized in tricaine and imaged at 2 dpf. MetaMorph Basic software (Olympus, Center Valley, Pa., United States of America) was used for image acquisition and analysis.
Quantification of Nrf2 Reporter Activity by Tg(gstp1:
GFP) Fluoresence in Zebrafish Model. The fluorescence intensity of the olfactory neural epithelia was quantitated using MetaMorph Basic software. In brief, GFP expression in the olfactory regions of Tg(gstp1:GFP) embryos treated with various chemicals was measured after 24-hour treatment from 1 dpf to 2 dpf. The GFP induction was detectable by fluorescence signal at the area of the olfactory epithelia in the anterior of the head region, the intensity was measured using an area of a circle of 60 pixel diameter of the fluorescence olfactory epithelia subtracted by a background non-fluorescence area next to the zebrafish embryo. Both the left and right olfactory epithelia were measured to give an average fluorescence value. The values are an average of measurements from at least 10 embryos.

Values joined by “and” are separate entries in the source; they are usually repeats but may differ in a detail not shown here. Identical values can stand only once.

What is called IC50 is the concentration that inhibits the measured activity by half. Higher therefore signals lower potency. Take `CCCCC/C=C/C(=O)/C=C/c1ccc(O)c(O)c1` [Compound 26]: the figures for the IC50 in series [1] and in series [2] were 11.5 µM and 5.42 µM, respectively. In series [3], the “Cysteine conjugates found in zebrafish embryos” value is “Three conjugates 37, 37b, and 38 were detected”. For the same molecule, the “Ratio/CTL, Tg(gstp1:GFP) fluorescence signal” value in series [4] is 6.96 and 6.96 ± 0.48.
